# Key:
# [1] = tested on: ARR6:GUS reporter gene; test: Protoplast transactivation assay (ARR6:GUS reporter); format: cell-based, Arabidopsis
# Method: The ARR6:GUS reporter construct and a 35S:GUS construct without any effector plasmid were used as controls. Protoplasts were co-transfected with the ARR6:GUS reporter and an effector plasmid expressing ARR1, ARR1-SRDX or both effector plasmids simultaneously. […] Variations in transformation efficiencies were normalized by using a 35S:NAN reporter gene construct. The mean values and SD of four independent transfection assays were calculated and shown as relative GUS/NAN activity units.
# Protoplast isolation and transformation was carried out according to the method described by Hwang and Sheen (Hwang and Sheen, 2001). For isolation of mesophyll protoplasts 4-5 weeks old rosette leaves were used. Transformation of protoplasts was mediated by 40% PEG solution. […] For the transactivation assays, 9 μg of the ARR6: GUS reporter plasmid and 14 μg of each effector plasmid carrying 35S:ARR1 and 35S:ARR1-SRDX were used. For normalization 3 μg of a plasmid harboring the 35S:NAN gene (Kirby and Kavanagh, 2002) was added. Both GUS and NAN enzyme assays were performed according to Kirbay and Kavanagh (Kirby and Kavanagh, 2002). The ratios of GUS and NAN activities were calculated as relative GUS/NAN activity units.
# [2] = tested on: detached leaves; test: Chlorophyll retention assay in detached leaves; format: in vivo, Arabidopsis thaliana; settings: wild type leaves, 0.1 μM BA, 10 d dark
# Method: (b) Quantification of chlorophyll retention by cytokinin. […] Three independent plates with five leaves per plate were examined for each concentration. Two chlorophyll measurements were taken per plate. The chlorophyll content was determined spectrophotometrically as described in Example 3.5. Error bars represent SD (n=15). The chlorophyll retention assay was performed as described by ([…] et al., 2006). Either the sixth or the seventh leaf was detached from 24-days-old in vitro grown seedlings and floated on distilled water supplemented with 0, 0.01, 0.1, 0.5, 1.0 or 5.0 μM BA in 0.1% DMSO in small Petri dishes for 10 d at RT in the dark. Three replicates of each genotype, each consisting of five leaves were taken for measurement. Chlorophyll was extracted with methanol for 24 h in the dark. The amount of chlorophyll was measured with a spectrophotometer, normalized to fresh weight, and the chlorophyll content was calculated as described (Porra et al., 1989).
# [3] = tested on: Arabidopsis seedlings; test: Cytokinin sensitivity of roots (root elongation, lateral root formation); format: in vivo, Arabidopsis thaliana
# Method: ([…] plants are less sensitive to cytokinin inhibition of root elongation. Root elongation was measured for each line between 4 and 9 DAG. The root elongation of each line is expressed as percentage of its DMSO control. Results shown for each line represent means from at least three independent replicates. ([…] plants are less sensitive to cytokinin inhibition of lateral root formation. The number of lateral roots was determined 9 DAG. Error bars represent SD (n>15). Arabidopsis seeds were grown on vertical plates containing different concentration of BA ranging from 0.01 μM to 1.0 mM. 0.1% dimethyl sulfoxide (DMSO) was included as vehicle control. The primary root lengths were marked on day four and nine after germination. Photographs were taken with a digital camera (Nikon Coolpix 8800) and root lengths were determined using Scion Image program version beta 4.02 (www.scioncorp.com). The number of lateral roots emerging from the epidermis of the primary root was counted under a microscope […]. The experiments were performed using three independent replicates and 15 seedlings in each replicate. To investigate the cytokinin response in roots, seedlings of wild type and the 35[…] lines were grown on media containing increasing amounts of cytokinin. […] The relative difference in root length increased with increasing cytokinin concentrations (FIG. 7a). […]
molecule,measurement,setting,value
"C/C(=C\CNc1ncnc2nc[nH]c12)CO [cytokinin, trans-zeatin]",induction of the reporter gene expression compared to the non-induced condition,"[1]; ARR6:GUS reporter without effector, 500 nM trans-zeatin, 16 h",more than threefold induction
same,further increase of the GUS activity on addition of cytokinin,"[1]; with 35S:ARR1 effector, 500 nM trans-zeatin",twofold increase
c1ccc(CNc2ncnc3[nH]cnc23)cc1 [BA],chlorophyll retention,[2],strongly increased chlorophyll retention
same,root length reduction compared to control,"[3]; wild type plants, 1 μM BA",75%
same,lateral root formation,"[3]; wild type, 0.1 μM BA",unable to produce lateral roots
"ARR1: Arabidopsis thaliana B-type response regulator ARR1 (SEQ ID NO: 12), expressed under the 35S promoter (protein, listed as Arabidopsis thaliana) MMNPSHGRGLGSAGGSSSGRNQGGGGETVVEMFPSGLRVLVVDDDPTCLMILERMLRTCLYEVTKCNRAEMALSLLRKNKHGFDIVISDVHMPDMDGFKLLEHVGLEMDLPVIMMSADDSKSVVLKGVTHGAVDYLIKPVRMEALKNIWQHVVRKRRSEWSVPEHSGSIEETGERQQQQHRGGGGGAAVSGGEDAVDDNSSSVNEGNNWRSSSRKRKDEEGEEQGDDKDEDASNLKKPRVVWSVELHQQFVAAVNQLGVEKAVPKKILELMNVPGLTRENVASHLQKYRIYLRRLGGVSQHQGNLNNSFMTGQDASFGPLSTLNGFDLQALAVTGQLPAQSLAQLQAAGLGRPAMVSKSGLPVSSIVDERSIFSFDNTKTRFGEGLGHHGQQPQQQPQMNLLHGVPTGLQQQLPMGNRMSIQQQIAAVRAGNSVQNNGMLMPLAGQQSLPRGPPPMLTSSQSSIRQPMLSNRISERSGFSGRNNIPESSRVLPTSYTNLTTQHSSSSMPYNNFQPELPVNSFPLASAPGISVPVRKATSYQEEVNSSEAGFTTPSYDMFTTRQNDWDLRNIGIAFDSHQDSESAAFSASEAYSSSSMSRHNTTVAATEHGRNHQQPPSGMVQHHQVYADGNGGSVRVKSERVATDTATMAFHEQYSNQEDLMSALLKQV",GUS activity,"[1]; co-transfection with ARR1 under 35S promoter, absence of cytokinin",strong increase in GUS activity

# — patent publication US20100115666A1, “Transcriptional Repressors of Cytokinin Signaling and Their Use” (FREIE UNIVERSITÄT BERLIN, priority 2006, published 2010)
